# Reference: patent US9624155B2, “Iron (III) citrate, substantially free of beta-iron hydroxide oxide” (Japan Tobacco Inc., priority 2011, dated 2017)
# Assay: Specific surface area by nitrogen gas adsorption (BET)
# Format: physicochemical
# Settings: relative pressure 0.05 to 0.3 (BET surface area)
# Description: A specific surface area can be measured by, for example, but is not limited to, BET surface area measurement via nitrogen gas adsorption (relative pressure: 0.05 to 0.3).
# Specific surface areas of iron(III) citrates of Comparative Examples 11 and 12 and Examples 1, 4, 5, 6, 7, and 10 to 23 were measured by nitrogen gas adsorption (relative pressure: 0.05 to 0.3) (BET surface area).
row,Structure (SMILES),Specific surface area [m^2/g]
1,"O=C([O-])CC(O)(CC(=O)[O-])C(=O)[O-].[Fe+3] [Comparative Example 11, iron(III) citrate]",0.80
2,"O=C([O-])CC(O)(CC(=O)[O-])C(=O)[O-].[Fe+3] [Comparative Example 12, iron(III) citrate]",0.62
3,"O=C([O-])CC(O)(CC(=O)[O-])C(=O)[O-].[Fe+3] [Example 1, iron(III) citrate]",21.8
4,"O=C([O-])CC(O)(CC(=O)[O-])C(=O)[O-].[Fe+3] [Example 4, iron(III) citrate]",33.4
5,"O=C([O-])CC(O)(CC(=O)[O-])C(=O)[O-].[Fe+3] [Example 5, Iron(III) citrate]",31.0
6,"O=C([O-])CC(O)(CC(=O)[O-])C(=O)[O-].[Fe+3] [Example 6, Iron(III) citrate]",30.4
7,"O=C([O-])CC(O)(CC(=O)[O-])C(=O)[O-].[Fe+3] [Example 7, Iron(III) citrate]",29.8
8,"O=C([O-])CC(O)(CC(=O)[O-])C(=O)[O-].[Fe+3] [Example 10, Iron(III) citrate]",29.9
9,"O=C([O-])CC(O)(CC(=O)[O-])C(=O)[O-].[Fe+3] [Example 11, Iron(III) citrate]",30.0
10,"O=C([O-])CC(O)(CC(=O)[O-])C(=O)[O-].[Fe+3] [Example 12, Iron(III) citrate]",30.3
11,"O=C([O-])CC(O)(CC(=O)[O-])C(=O)[O-].[Fe+3] [Example 13, Iron(III) citrate]",29.1
12,"O=C([O-])CC(O)(CC(=O)[O-])C(=O)[O-].[Fe+3] [Example 14, Iron(III) citrate]",37.9
13,"O=C([O-])CC(O)(CC(=O)[O-])C(=O)[O-].[Fe+3] [Example 15, Iron(III) citrate]",38.5
14,"O=C([O-])CC(O)(CC(=O)[O-])C(=O)[O-].[Fe+3] [Example 16, Iron(III) citrate]",33.7
15,"O=C([O-])CC(O)(CC(=O)[O-])C(=O)[O-].[Fe+3] [Example 17, Iron(III) citrate]",32.4
16,"O=C([O-])CC(O)(CC(=O)[O-])C(=O)[O-].[Fe+3] [Example 18, Iron(III) citrate]",39.9
17,"O=C([O-])CC(O)(CC(=O)[O-])C(=O)[O-].[Fe+3] [Example 19, Iron(III) citrate]",39.8
18,"O=C([O-])CC(O)(CC(=O)[O-])C(=O)[O-].[Fe+3] [Example 20, Iron(III) citrate]",33.8
19,"O=C([O-])CC(O)(CC(=O)[O-])C(=O)[O-].[Fe+3] [Example 21, Iron(III) citrate]",35.5
20,"O=C([O-])CC(O)(CC(=O)[O-])C(=O)[O-].[Fe+3] [Example 22, Iron(III) citrate]",32.6
21,"O=C([O-])CC(O)(CC(=O)[O-])C(=O)[O-].[Fe+3] [Example 23, Iron(III) citrate]",32.8
